The target in assay [1] is T1, Cholecystokinin receptor type A (Rattus norvegicus, UniProt P30551).
T1 sequence (P30551 whole entry): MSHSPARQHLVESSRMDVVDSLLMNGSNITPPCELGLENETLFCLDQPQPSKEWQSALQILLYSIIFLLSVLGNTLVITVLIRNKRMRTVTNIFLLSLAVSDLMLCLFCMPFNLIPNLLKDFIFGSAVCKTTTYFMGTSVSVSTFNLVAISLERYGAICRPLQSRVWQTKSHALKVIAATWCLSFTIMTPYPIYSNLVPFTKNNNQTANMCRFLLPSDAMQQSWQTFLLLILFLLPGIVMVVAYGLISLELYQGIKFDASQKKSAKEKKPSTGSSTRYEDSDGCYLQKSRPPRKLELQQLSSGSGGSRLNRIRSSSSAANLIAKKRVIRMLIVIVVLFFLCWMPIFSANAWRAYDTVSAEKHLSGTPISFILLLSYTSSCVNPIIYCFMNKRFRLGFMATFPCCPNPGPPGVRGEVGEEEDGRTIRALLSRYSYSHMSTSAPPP
As to the kind of experiment: Inhibition of binding of [125I]CCK-8 to cholecystokinin type A receptor in rat pancreatic tissue.

A further assay is filed under the species Cavia porcellus. As to the kind of experiment: Selectivity ratio between CCK-B and CCK-A receptor. The arrangement: reference not given here.

pIC50: −log10 of the molar value.

In assay [1], `CCN(CC)C(=O)CN1C(=O)C(NC(=O)Nc2cccc(OC)c2)N=C(c2ccccc2)c2ccccc21` (racemic) gave a pIC50 of 6.92. In addition, the Selectivity ratio in the assay listed under Cavia porcellus is 545.

In the case of `Cc1cccc(NC(=O)NC2N=C(c3ccccc3)c3ccccc3N(CCOC(=O)CCC(=O)O)C2=O)c1` (racemic), the negative logarithm of the IC50 (pIC50) in assay [1] was 7.43. In addition, the Selectivity ratio in the assay listed under Cavia porcellus is 5.

In the case of `C#Cc1cccc(NC(=O)NC2N=C(c3ccccc3)c3ccccc3N(C)C2=O)c1` (configuration not stated), in assay [1], the pIC50 is 6.40. Besides, the Selectivity ratio in the assay filed under Cavia porcellus was 18.

`CN1C(=O)[C@H](NC(=O)Nc2ccccc2Cl)N=C(c2ccccc2)c2ccccc21` had a pIC50 in assay [1] of 6.39. Also, the Selectivity ratio in the assay filed under Cavia porcellus came to 6.7.

`O=C(Nc1ccc(Cl)cc1)N[C@H]1N=C(c2ccccc2)c2ccccc2N(CC(=O)N2CCCC2)C1=O` showed a pIC50 in assay [1] of 5.60. For the same molecule, the Selectivity ratio in the assay listed under Cavia porcellus is 192.

On to `CN1C(=O)C(NC(=O)Nc2cccc(CC(=O)O)c2)N=C(c2ccccc2)c2ccccc21` (configuration not stated), for which, in assay [1], the pIC50 was 7.21. In addition, in the assay listed under Cavia porcellus, the Selectivity ratio came out at 12.

`COc1cccc(NC(=O)NC2N=C(c3ccccc3)c3ccccc3N(CC(=O)N3CCN(C)CC3)C2=O)c1` (racemic): the pIC50 in assay [1] is 5.85. Besides, the Selectivity ratio in the assay filed under Cavia porcellus worked out at 318.

`O=C(Nc1ccc(Cl)cc1)NC1N=C(c2ccccc2)c2ccccc2N(CC(=O)N2CCCC2)C1=O` (racemic) gave a pIC50 in assay [1] of 6.00. For the same molecule, the Selectivity ratio in the assay listed under Cavia porcellus came to 625.

As for `CN1C(=O)C(NC(=O)Nc2cccc(C#N)c2)N=C(c2ccccc2)c2ccccc21` (configuration not stated), the pIC50 in assay [1] was 5.51. For the same molecule, in the assay filed under Cavia porcellus, the Selectivity ratio came to 115.

On to `COc1ccc(NC(=O)NC2N=C(c3ccccc3)c3ccccc3N(C)C2=O)cc1` (racemic), for which, in assay [1], the negative-log IC50 (pIC50) was 6.78. In the assay filed under Cavia porcellus, the Selectivity ratio was found to be 6.

As for `CCN(CC)C(=O)C(C)N1C(=O)C(NC(=O)Nc2ccc(Cl)cc2)N=C(c2ccccc2)c2ccccc21` (racemic), the pIC50 in assay [1] is 6.39. Further, in the assay listed under Cavia porcellus, the Selectivity ratio was 19.

`CN1C(=O)[C@@H](NC(=O)Nc2ccc(Cl)cc2)N=C(c2ccccc2)c2ccccc21`: the pIC50 in assay [1] was 6.96. For the same molecule, the Selectivity ratio in the assay filed under Cavia porcellus turned out to be 0.1.

With `CN1C(=O)C(NC(=O)Nc2cccc(-c3ccccc3)c2)N=C(c2ccccc2)c2ccccc21` (racemic), the negative logarithm of the IC50 (pIC50) in assay [1] is 6.91. Besides, the Selectivity ratio in the assay listed under Cavia porcellus turned out to be 1.

In turn, `C[C@H](NC(=O)NC1N=C(c2ccccc2)c2ccccc2N(C)C1=O)c1ccccc1` (mixture of isomers) gave a pIC50 in assay [1] of 6.37. Besides, the Selectivity ratio in the assay filed under Cavia porcellus came out at 0.04.

Turning to `Cc1cccc(NC(=O)NC2N=C(c3ccccc3)c3ccccc3N(Cc3n[nH]c(C)n3)C2=O)c1` (racemic), the pIC50 in assay [1] was 6.25. In addition, in the assay filed under Cavia porcellus, the Selectivity ratio amounted to 58.

For `CN1C(=O)C(NC(=O)Nc2ccc(Cl)cc2)N=C(c2ccccc2)c2ccccc21` (racemic), the pIC50 in assay [1] was 5.92. Besides, the Selectivity ratio in the assay filed under Cavia porcellus worked out at 15.

In turn, `CN1C(=O)C(NC(=O)Nc2cccnc2)N=C(c2ccccc2)c2ccccc21` (racemic) showed a pIC50 in assay [1] of 6.92. In the assay listed under Cavia porcellus, the Selectivity ratio amounted to 0.4.

In turn, `CN1C(=O)[C@H](NC(=O)Nc2cccc(O)c2)N=C(c2ccccc2)c2ccccc21` gave a pIC50 in assay [1] of 7.22. In addition, the Selectivity ratio in the assay filed under Cavia porcellus was 1.

In assay [1], `Cc1cccc(NC(=O)NC2N=C(c3ccccc3)c3ccccc3N(CC(=O)Nc3ccncc3)C2=O)c1` (racemic) had a pIC50 of 5.96. In the assay filed under Cavia porcellus, the Selectivity ratio turned out to be 23.

For `Cc1cccc(NC(=O)NC2N=C(c3ccccn3)c3ccccc3N(C)C2=O)c1` (configuration not stated), the pIC50 in assay [1] was 7.19. Also, the Selectivity ratio in the assay listed under Cavia porcellus is 1.

In assay [1], `Cc1cccc(NC(=O)NC2N=C(c3ccccc3)c3ccccc3N(CC(=O)N3CC[N+](C)(C)CC3)C2=O)c1` (racemic) had a pIC50 of 5.21. For the same molecule, the Selectivity ratio in the assay listed under Cavia porcellus was found to be 107.

In assay [1], `CCOC(=O)CN1C(=O)C(NC(=O)N[C@@H](C)c2ccccc2)N=C(c2ccccc2)c2ccccc21` (mixture of isomers) gave a pIC50 of 5.32. Moreover, the Selectivity ratio in the assay listed under Cavia porcellus is < 48.

Turning to `Cc1cccc(NC(=O)NC2N=C(c3ccccc3)c3cccnc3N(C)C2=O)c1` (racemic), in assay [1], the pIC50 is 6.98. For the same molecule, the Selectivity ratio in the assay filed under Cavia porcellus was < 0.01.

Take `CN1C(=O)C(NC(=O)NCc2cccc(C(C)(C)O)c2)N=C(c2ccccc2)c2ccccc21` (configuration not stated): the pIC50 in assay [1] is 6.39. The Selectivity ratio in the assay listed under Cavia porcellus stood at 69.

On to `Cc1cc(C)cc(NC(=O)NC2N=C(c3ccccc3)c3ccccc3N(C)C2=O)c1` (configuration not stated), for which, in assay [1], the pIC50 was 6.14. Further, the Selectivity ratio in the assay listed under Cavia porcellus was 2.7.

As for `COC(=O)c1cccc(NC(=O)N[C@@H]2N=C(c3ccccc3)c3ccccc3N(C)C2=O)c1`, the pIC50 in assay [1] was 5.92. Moreover, the Selectivity ratio in the assay listed under Cavia porcellus worked out at 150.

As to `Cc1cccc(NC(=O)NC2N=C(c3ccncc3)c3ccccc3N(C)C2=O)c1` (racemic), the pIC50 in assay [1] is 6.41. Further, the Selectivity ratio in the assay filed under Cavia porcellus was found to be 7.5.

The molecule `COc1cccc(NC(=O)NC2N=C(c3ccccc3)c3ccccc3N(CC[N+](C)(C)C)C2=O)c1` (racemic) had a pIC50 in assay [1] of 4.77. In addition, the Selectivity ratio in the assay listed under Cavia porcellus turned out to be 15.

For `O=C(Nc1ccc(Cl)cc1)NC1N=C(c2ccccc2)c2ccccc2NC1=O` (racemic), the negative logarithm of the IC50 (pIC50) in assay [1] was 6.96. For the same molecule, the Selectivity ratio in the assay listed under Cavia porcellus was 0.4.

As to `CN1C(=O)C(NC(=O)Nc2ccc3ncccc3c2)N=C(c2ccccc2)c2ccccc21` (racemic), the pIC50 in assay [1] is 6.51. Besides, in the assay filed under Cavia porcellus, the Selectivity ratio is 6.

The molecule `CN1C(=O)C(NC(=O)Nc2ccc3ccccc3n2)N=C(c2ccccc2)c2ccccc21` (configuration not stated) gave a pIC50 in assay [1] of 6.74. Also, in the assay filed under Cavia porcellus, the Selectivity ratio was 7.

With `Cc1cccc(NC(=O)NC2N=C(c3ccccc3)c3ccccc3N(CC(=O)O)C2=O)c1` (racemic), the pIC50 in assay [1] is 8.12. Besides, in the assay filed under Cavia porcellus, the Selectivity ratio came out at 0.02.

The molecule `CN1C(=O)[C@@H](NC(=O)Nc2ccccc2Cl)N=C(c2ccccc2)c2ccccc21` had a pIC50 in assay [1] of 9.59. Also, in the assay listed under Cavia porcellus, the Selectivity ratio is < 0.01.

Take `Cc1ccc(NC(=O)NC2N=C(c3ccccc3)c3ccccc3N(CC(=O)Nc3ccncc3)C2=O)cc1` (racemic): in assay [1], the negative logarithm of the IC50 (pIC50) was 5.40. Moreover, in the assay filed under Cavia porcellus, the Selectivity ratio is 21.

As to `CCN(CC)CC(=O)OCCN1C(=O)C(NC(=O)Nc2cccc(C)c2)N=C(c2ccccc2)c2ccccc21` (racemic), the pIC50 in assay [1] is 6.72. In addition, the Selectivity ratio in the assay filed under Cavia porcellus worked out at 34.

With `O=C(Nc1ccc(Cl)cc1)N[C@@H]1N=C(c2ccccc2)c2ccccc2N(CC(=O)N2CCCC2)C1=O`, in assay [1], the pIC50 is 6.05. Besides, the Selectivity ratio in the assay filed under Cavia porcellus turned out to be 643.

For the molecule `CN1C(=O)C(NC(=O)Nc2ccccn2)N=C(c2ccccc2)c2ccccc21` (racemic), the pIC50 in assay [1] is 6.35. In the assay listed under Cavia porcellus, the Selectivity ratio turned out to be 1.3.

In assay [1], `Cc1cccc(NC(=O)NC2N=C(c3ccccc3)c3cnccc3N(C)C2=O)c1` (racemic) had a pIC50 of 7.21. For the same molecule, in the assay listed under Cavia porcellus, the Selectivity ratio came out at 0.1.

Consider `Cc1ccc(NC(=O)NC2N=C(c3ccccc3)c3ccccc3N(C)C2=O)cc1C` (configuration not stated), for which, in assay [1], the pIC50 was 6.51. Besides, the Selectivity ratio in the assay listed under Cavia porcellus is 14.

For `CCN(CC)C(=O)CN1C(=O)C(NC(=O)Nc2cccc(C)c2)N=C(c2ccccn2)c2ccccc21` (racemic), the pIC50 in assay [1] is 6.36. In the assay filed under Cavia porcellus, the Selectivity ratio stood at 776.

On to `CN1C(=O)[C@H](NC(=O)NCc2cccc(O)c2)N=C(c2ccccc2)c2ccccc21`, for which the pIC50 in assay [1] was 7.68. In addition, the Selectivity ratio in the assay filed under Cavia porcellus turned out to be 1.

The values are drawn from ChEMBL document CHEMBL1126970, “Development of 1,4-benzodiazepine cholecystokinin type B antagonists” (J Med Chem, 1993).
